{"source": "paper PMC11599716", "about": "“Trapping of spermine, Kukoamine A, and polyamine toxin blockers in GluK2 kainate receptor channels” (Nature Communications, 2024)", "key": {"GluK2 kainate receptor [1]": {"molecular_target": "T1, GluK2 kainate receptor (Rattus norvegicus, UniProt P42260, I567V/Y571C)", "T1 construct": "gene Grik2; full-length rat GluK2 (GenBank CAA77778.1), V567, C571, Q621 (Q/R site unedited); LBD-TMD modelled (S429-R874); homotetramer", "T1 sequence (P42260 32-908 I567V/Y571C)": "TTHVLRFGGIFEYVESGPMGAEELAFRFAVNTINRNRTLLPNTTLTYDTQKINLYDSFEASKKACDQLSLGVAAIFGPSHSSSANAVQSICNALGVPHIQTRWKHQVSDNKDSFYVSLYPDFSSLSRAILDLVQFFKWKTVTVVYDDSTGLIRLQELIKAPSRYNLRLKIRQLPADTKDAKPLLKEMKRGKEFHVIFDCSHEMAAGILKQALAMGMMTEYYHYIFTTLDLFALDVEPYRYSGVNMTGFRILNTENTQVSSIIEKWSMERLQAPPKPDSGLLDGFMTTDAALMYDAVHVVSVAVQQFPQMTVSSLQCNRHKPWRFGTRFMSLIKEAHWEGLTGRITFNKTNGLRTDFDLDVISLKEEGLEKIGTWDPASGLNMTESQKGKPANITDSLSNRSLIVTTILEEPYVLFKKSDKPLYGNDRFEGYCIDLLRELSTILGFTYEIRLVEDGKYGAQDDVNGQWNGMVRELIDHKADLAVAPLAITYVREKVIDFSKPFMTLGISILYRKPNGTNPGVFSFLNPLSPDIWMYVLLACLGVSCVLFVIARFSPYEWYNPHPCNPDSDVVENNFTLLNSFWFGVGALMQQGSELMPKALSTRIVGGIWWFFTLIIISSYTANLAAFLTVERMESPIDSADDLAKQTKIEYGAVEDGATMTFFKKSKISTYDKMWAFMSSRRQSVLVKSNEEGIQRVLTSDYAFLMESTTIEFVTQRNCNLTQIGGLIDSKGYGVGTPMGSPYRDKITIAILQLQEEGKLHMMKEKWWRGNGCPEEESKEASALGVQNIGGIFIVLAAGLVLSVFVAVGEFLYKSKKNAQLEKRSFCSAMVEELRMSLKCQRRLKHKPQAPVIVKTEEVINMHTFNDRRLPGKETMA", "experiment": "cryo-EM structures (four BPAM344 molecules per tetramer in all four structures)"}, "GluK2 kainate receptor [2]": {"molecular_target": "T2, GluK2 kainate receptor (Rattus norvegicus, UniProt P42260)", "T2 construct": "gene Grik2; full-length rat GluK2, Q621 (Q/R site unedited), homotetramer", "T2 sequence (P42260 32-908)": "as the sequence (P42260 32-908 I567V/Y571C) above, with V536I, C540Y counted along it", "experiment": "whole-cell patch clamp in HEK293 cells expressing GluK2 (agonist, with ConA treatment)", "assay_type": "cell-based"}, "GluK2 kainate receptor [3]": {"molecular_target": "T1, GluK2 kainate receptor", "experiment": "cryo-EM structure ([…] Å, with BPAM344); IC50 from whole-cell patch clamp in HEK293 cells", "assay_type": "cell-based"}, "GluK2 kainate receptor [4]": {"molecular_target": "T1, GluK2 kainate receptor", "experiment": "cryo-EM structure ([…] Å, with BPAM344); IC50 from whole-cell patch clamp in HEK293 cells", "assay_type": "cell-based", "remark": "listed apart in the source"}, "GluK2 kainate receptor [5]": {"molecular_target": "T1, GluK2 kainate receptor", "experiment": "cryo-EM structure ([…] Å, with BPAM344); IC50 from whole-cell patch clamp in HEK293 cells", "assay_type": "cell-based", "remark": "listed apart in the source"}, "GluK2 kainate receptor [6]": {"molecular_target": "T1, GluK2 kainate receptor", "experiment": "cryo-EM structure ([…] Å, with BPAM344); IC50 from whole-cell patch clamp in HEK293 cells", "assay_type": "cell-based", "remark": "listed apart in the source"}}, "note": "Where two headings read alike, the source gives them in different places.", "data": [{"smiles": "O=S1(=O)NCN(C2CC2)c2ccc(F)cc21", "note": "[BPAM, BPAM344]", "values": [{"measurement": "cryo-EM structures (four BPAM344 molecules per tetramer in all four structures)", "setting": "GluK2 kainate receptor [1]", "value": "improved map quality, with well-resolved densities for BPAM, carbohydrates, and annular lipids"}]}, {"smiles": "C=C(C)[C@H]1CN[C@H](C(=O)O)[C@H]1CC(=O)O", "note": "[KA, kainic acid]", "values": [{"measurement": "whole-cell patch clamp in HEK293 cells expressing GluK2 (agonist, with ConA trea)", "setting": "GluK2 kainate receptor [2]", "value": "the agonist kainic acid (KA) elicited large inward currents with a steady-state value of IControl"}]}, {"smiles": "O=C(CCc1ccc(O)c(O)c1)NCCCNCCCCNCCCNC(=O)CCc1ccc(O)c(O)c1", "note": "[KukoA, Kukoamine A]", "values": [{"measurement": "IC50", "setting": "GluK2 kainate receptor [3]", "value": "704 ± 31", "unit": "µM"}]}, {"smiles": "NCCCNCCCCNCCC(=O)NCCCCCNC(=O)[C@@H](CC(N)=O)NC(=O)Cc1c[nH]c2ccccc12", "note": "[NpTx-8]", "values": [{"measurement": "IC50", "setting": "GluK2 kainate receptor [4]", "value": "0.51 ± 0.01", "unit": "µM"}]}, {"smiles": "CCCC(=O)N[C@H](Cc1ccc(O)cc1)C(=O)NCCCCCCCNCCCCN", "note": "[PhTx-74]", "values": [{"measurement": "IC50", "setting": "GluK2 kainate receptor [5]", "value": "7.53 ± 0.35", "unit": "µM"}]}, {"smiles": "NCCCNCCCCNCCCN", "note": "[SPM, spermine]", "values": [{"measurement": "IC50", "setting": "GluK2 kainate receptor [6]", "value": "7770 ± 510", "unit": "µM"}]}]}
